# According to patent publication US12203089B2, “Plants having increased tolerance to herbicides” (BASF SE, priority 2015, dated 2025):
# Tests used:
# Format in all cases: in vivo
# [1] = system: Brassica napus expressing BnaA01g04600D (SEQ ID 21) variant G1012R; test: 6-well plate injury test, T1 seeds on vermiculite; settings: BnaA01g04600D G1012R event 1, 7 days after treatment
# Protocol: (§1) Transgenic Brassica napus plants are assayed for improved tolerance to azine herbicides like e. g. 6-cyclopentyl-N4-(2,3,4,5,6-pentafluorophenyl)-1,3,5-triazine-2,4-diamine in 6-well plates. Therefore, 5-6 T1 seeds are sown on vermiculite and watered with half-strength murashige skoog nutrient solution, pH 5.8 (Murashige and Skoog (1962) Physiologia Plantarum 15: 473-497). Compounds are dissolved in dimethylsulfoxid (DMSO) and added to the medium (final DMSO concentration 0.1%). Multi well plates are incubated in a growth chamber at 22° C., 75% relative humidity and 110 μmol Phot*m^−2*s^−1 with 14: 10 h light: dark photoperiod. Growth inhibition is evaluated seven to ten days after seeding in comparison to wild type plants. Plant injury is rated on a scale of 0% to 100%, 0% being no injury and 100% being complete death.
# [2] = system: Brassica napus expressing BnaAnng01240D (SEQ ID 20) variant S1038F; test: 6-well plate injury test, T1 seeds on vermiculite; settings: 7 days after treatment
# Protocol: as §1
# Brassica napus wildtype [3] = test: 6-well plate injury test, seeds on vermiculite
# Protocol: as §1
# [4] = system: Brassica napus expressing BnaAnng01240D (SEQ ID 20) variant S1041L; test: Greenhouse herbicide tolerance, post emergent; settings: 7 days after treatment
# Protocol: (§2) T1/T2 transgenic plants of Brassica napus containing cellulose synthase sequences or mutated gene variants thereof are tested for improved tolerance to herbicides in greenhouse studies with azine herbicides. For the pre-emergence treatment, the herbicides are applied directly after sowing by means of finely distributing nozzles. The containers are irrigated gently to promote germination and growth and subsequently covered with transparent plastic hoods until the plants have rooted. This cover causes uniform germination of the test plants, unless this has been impaired by the herbicides. For post emergence treatment, the test plants are first grown to a height of 3 to 15 cm, depending on the plant habit, and only then treated with the herbicides. For this purpose, the test plants are either sown directly, and grown in the same containers or they are first grown separately and transplanted into the test containers a few days prior to treatment.
# (§3) Herbicide injury evaluations are taken at 1, 2 and 3 weeks after treatment. Plant biomass reduction is rated on a scale of 0% to 100%, 0% being no reduction of biomass compared to untreated control, and 100% being complete absence of biomass.
# [5] = system: Brassica napus expressing BnaA03g55200D (SEQ ID 12) variant S1038F; test: 6-well plate injury test, T1 seeds on vermiculite; settings: 7 days after treatment
# Protocol: as §1
# [6] = system: Brassica napus expressing BnaA03g55200D (SEQ ID 12) variant S1041L; test: 6-well plate injury test, T1 seeds on vermiculite; settings: 7 days after treatment
# Protocol: as §1
# [7] = system: Brassica napus expressing BnaA03g52020D (SEQ ID 15) variant G1015R; test: Greenhouse herbicide tolerance, pre emergent; settings: 7 days after treatment
# Protocol: as §2, §3
# [8] = system: Brassica napus expressing BnaAnng01240D (SEQ ID 20) variant S1038F; test: Greenhouse herbicide tolerance, pre emergent; settings: 7 days after treatment
# Protocol: as §2, §3
# Brassica napus wildtype [9] = test: Greenhouse herbicide tolerance, pre emergent; settings: 1.95 g/ha, 7 days after treatment
# Protocol: as §2, §3
# [10] = BnaAnng01240D S1038F event 1, 5*10^-8M
# [11] = BnaAnng01240D S1038F event 1, 10^-6M
# [12] = BnaAnng01240D S1038F event 1, 10^-7M
# [13] = BnaAnng01240D S1038F event 1, 10^-8M
smiles,measurement,setting,value
"Nc1nc(Nc2nc(F)c(F)c(Cl)c2F)nc(C2(F)CCCC2)n1 [N2-(4-chloro-3,5,6-trifluoro-2-pyridyl)-6-(1-fluorocyclopentyl)-1,3,5-triazine-2,4-diamine]",average phytotox value,[1]; 5*10-7,75%
same,average phytotox value,[1]; 5*10^-8M,10%
same,average phytotox value,[1]; 10^-6M,80%
same,average phytotox value,[1]; 10^-7M,10%
same,average phytotox value,[1]; 10^-8M,0%
same,average phytotox value,"[2]; BnaAnng01240D S1038F event 1, 5*10-7",30%
same,average phytotox value,[2]; [10],5%
same,average phytotox value,[2]; [11],85%
same,average phytotox value,[2]; [12],30%
same,average phytotox value,[2]; [13],0%
same,average phytotox value,"Brassica napus wildtype [3]; 5*10-7, 7 days after treatment",78%
same,average phytotox value,"Brassica napus wildtype [3]; 5*10^-8M, 7 days after treatment",18%
same,average phytotox value,"Brassica napus wildtype [3]; 10^-6M, 7 days after treatment",85%
same,average phytotox value,"Brassica napus wildtype [3]; 10^-7M, 7 days after treatment",56%
same,average phytotox value,"Brassica napus wildtype [3]; 10^-8M, 7 days after treatment",8%
same,average phytotox value,[4]; 7.8 g/ha,6%
same,average phytotox value,[4]; 15.6 g/ha,9%
same,average phytotox value,[4]; 31.25 g/ha,54%
same,average phytotox value,[4]; 62.5 g/ha,64%
"Nc1nc(Nc2c(F)c(F)c(F)c(F)c2F)nc(C2CCCC2)n1 [6-cyclopentyl-N4-(2,3,4,5,6-pentafluorophenyl)-1,3,5-triazine-2,4-diamine]",average phytotox value,"[5]; BnaA03g55200D S1038F event 1, 5*10^-8M",40%
same,average phytotox value,"[5]; BnaA03g55200D S1038F event 1, 10^-6M",80%
same,average phytotox value,"[5]; BnaA03g55200D S1038F event 1, 10^-7M",75%
same,average phytotox value,"[5]; BnaA03g55200D S1038F event 1, 10^-8M",15%
same,average phytotox value,"[5]; BnaA03g55200D S1038F event 1, 10^-9M",0%
same,average phytotox value,"[5]; BnaA03g55200D S1038F event 2, 5*10^-8M",65%
same,average phytotox value,"[5]; BnaA03g55200D S1038F event 2, 10^-6M",90%
same,average phytotox value,"[5]; BnaA03g55200D S1038F event 2, 10^-7M",75%
same,average phytotox value,"[5]; BnaA03g55200D S1038F event 2, 10^-8M",0%
same,average phytotox value,"[5]; BnaA03g55200D S1038F event 2, 10^-9M",0%
same,average phytotox value,"[5]; BnaA03g55200D S1038F event 3, 5*10^-8M",65%
same,average phytotox value,"[5]; BnaA03g55200D S1038F event 3, 10^-6M",90%
same,average phytotox value,"[5]; BnaA03g55200D S1038F event 3, 10^-7M",80%
same,average phytotox value,"[5]; BnaA03g55200D S1038F event 3, 10^-8M",0%
same,average phytotox value,"[5]; BnaA03g55200D S1038F event 3, 10^-9M",0%
same,average phytotox value,"[6]; BnaA03g55200D S1041L event 1, 5*10^-8M",35%
same,average phytotox value,"[6]; BnaA03g55200D S1041L event 1, 10^-6M",95%
same,average phytotox value,"[6]; BnaA03g55200D S1041L event 1, 10^-7M",75%
same,average phytotox value,"[6]; BnaA03g55200D S1041L event 1, 10^-8M",0%
same,average phytotox value,"[6]; BnaA03g55200D S1041L event 1, 10^-9M",0%
same,average phytotox value,"[6]; BnaA03g55200D S1041L event 2, 5*10^-8M",50%
same,average phytotox value,"[6]; BnaA03g55200D S1041L event 2, 10^-6M",90%
same,average phytotox value,"[6]; BnaA03g55200D S1041L event 2, 10^-7M",80%
same,average phytotox value,"[6]; BnaA03g55200D S1041L event 2, 10^-8M",10%
same,average phytotox value,"[6]; BnaA03g55200D S1041L event 2, 10^-9M",0%
same,average phytotox value,"[6]; BnaA03g55200D S1041L event 3, 5*10^-8M",60%
same,average phytotox value,"[6]; BnaA03g55200D S1041L event 3, 10^-6M",85%
same,average phytotox value,"[6]; BnaA03g55200D S1041L event 3, 10^-7M",70%
same,average phytotox value,"[6]; BnaA03g55200D S1041L event 3, 10^-8M",0%
same,average phytotox value,"[6]; BnaA03g55200D S1041L event 3, 10^-9M",0%
same,average phytotox value,"[6]; BnaA03g55200D S1041L event 4, 5*10^-8M",50%
same,average phytotox value,"[6]; BnaA03g55200D S1041L event 4, 10^-6M",85%
same,average phytotox value,"[6]; BnaA03g55200D S1041L event 4, 10^-7M",60%
same,average phytotox value,"[6]; BnaA03g55200D S1041L event 4, 10^-8M",10%
same,average phytotox value,"[6]; BnaA03g55200D S1041L event 4, 10^-9M",0%
same,average phytotox value,[2]; [10],50%
same,average phytotox value,[2]; [11],80%
same,average phytotox value,[2]; [12],60%
same,average phytotox value,[2]; [13],0%
same,average phytotox value,"[2]; BnaAnng01240D S1038F event 1, 10^-9M",0%
same,average phytotox value,"[2]; BnaAnng01240D S1038F event 2, 5*10^-8M",65%
same,average phytotox value,"[2]; BnaAnng01240D S1038F event 2, 10^-6M",80%
same,average phytotox value,"[2]; BnaAnng01240D S1038F event 2, 10^-7M",65%
same,average phytotox value,"[2]; BnaAnng01240D S1038F event 2, 10^-8M",0%
same,average phytotox value,"[2]; BnaAnng01240D S1038F event 2, 10^-9M",0%
same,average phytotox value,[7]; 1.95 g/ha,27%
same,average phytotox value,[7]; 3.9 g/ha,0%
same,average phytotox value,[7]; 7.8 g/ha,0%
same,average phytotox value,[7]; 15.6 g/ha,21%
same,average phytotox value,[8]; 1.95 g/ha,1%
same,average phytotox value,[8]; 3.9 g/ha,14%
same,average phytotox value,[8]; 7.8 g/ha,8%
same,average phytotox value,[8]; 15.6 g/ha,26%
same,average phytotox value,Brassica napus wildtype [9],18%
